Measurements taken from US10308911B2, “Methods for generating the inner ear and other cranial placode-derived tissues using pluripotent stem cells” (Indiana University Research & Technology Corporation, priority 2012, dated 2019).
Entries after “also recorded” stand apart in the source; their conditions may differ.

Key:
Format in all cases: cell-based, mouse
ESC aggregates [1] = assay: Otic placode and otic vesicle induction (Pax2/Pax8/Ecad expression, vesicle counts)
Protocol: On day 8 of differentiation, cell aggregates are transferred to 24 well plates (Lipidure Coat, NOF; 4-8 aggregates per well) in N2 Medium containing 1% MATRIGEL™ (a gelatinous protein mixture secreted by Engelbreth-Holm-Swarm (EHS) mouse sarcoma cells) (v/v). N2 Medium contains Advanced DMEM/F12, 1×N2 Supplement, 1 mM Penicillin/Streptomycin or 50 μg/mL Normocin (Invivogen) and 1 mM GlutaMax.
(§1) The following small molecules and recombinant proteins were used: recombinant human BMP4 (10 ng/mL; Stemgent), human FGF2 (25 ng/mL; Peprotech), XAV939 (1 μM; Santa Cruz), SU5402 (10 μM; BioVision), SB-431542 (1 μM; Tocris Bioscience), and LDN-193189 (100 nM; Stemgent).
(§2) RNA was isolated using the RNeasy Minikit (Qiagen) and treated with TURBO DNase (Ambion). Single-stranded cDNA was synthesized using Omniscript reverse transcriptase (Qiagen) and Oligo-dT primers. All amplicons had standardized sizes of 100-110 bps. cDNA samples were amplified on an ABI PRISM 7900HT Sequence Detection System (Applied Biosystems) using the SYBR Green PCR Master Mix (Applied Biosystems). For each PCR reaction, a mixture containing cDNA template (5 ng), Master Mix, and forward and reverse primers (400 nM each) was treated with uracil N-glycosylase at 50° C. for 2 min before undergoing the following program: 1 cycles, 95° C., 10 min; 45 cycles, 95° C., 15 sec, 60° C., 1 min; 1 cycles, 95° C., 15 sec, 60° C., 15 sec, 95° C., 15 sec; 72° C., hold. Melting curve analysis was performed to confirm the authenticity of the PCR product. The mRNA level for each gene was calculated relative to L27 mRNA expression.
The percentage of epithelial cells expressing Pax8/Ecad was established by analyzing serial sections of day 6 and 8 aggregates. Data are representative of 6-8 aggregates from at least 3 separate experiments. For analysis of each aggregate, 5 cryosections were chosen at random positions along the z-axis of the aggregate. Using Nikon Elements or NIH ImageJ software, the Ecad^+ outer-epithelium was outlined and cell counting of DAPI and Pax8^+ nuclei along the length of the epithelium established a percentage for each cryosection.
Similarly, the number of Myo7a^+ hair cells in each day 20 aggregate was determined by analyzing 10 μm serial cryosections. Each biological sample represents the average number of hair cells counted in 4-6 cell aggregates and data are representative of the average from 3 separate experiments (15 aggregates total for each condition). Odd and even numbered cryosections were analyzed separately and averaged to avoid double counting. The number of vesicles was quantified similarly, but every third section was analyzed to avoid double counting and allow for analysis of three separate staining combinations. Vesicles with a long axis diameter larger than 30 μm were accounted for to avoid double counting.

ESC aggregates [2] = assay: Pre-placodal ectoderm induction in BMP/SB aggregates (marker expression, epithelial thickness)
Protocol: On day 4-5, the differentiation medium is replaced with differentiation medium containing FGF2 in a final concentration range of about 5 ng/ml to about 100 ng/ml (with a preferred final concentration of about 25 ng/mL) or another FGF selected from FGF 1-FGF23), and a BMP inhibitor. In some embodiments, the BMP inhibitor is LDN-193189 (CAS No. 1062368-24-4 at about 100 nM). Alternatively, DMH1 (CAS No. 1206711-16-1) or Dorsomorphin (CAS No. […]) can be used as the BMP inhibitor were added to each well at 6× concentration in 25 μL of fresh media. The extracellular matrix protein concentration (e.g., MATRIGEL™ (a gelatinous protein mixture secreted by Engelbreth-Holm-Swarm (EHS) mouse sarcoma cells) at 2% (v/v)) is maintained throughout days 1-8. Culture of the non-neural ectoderm cells under these conditions yields preplacodal ectoderm, epithelium characterized by expression of at least one of Dlx3, Dlx5, Pax2, Pax8 and Eya1. The concentration of MATRIGEL™ (a gelatinous protein mixture secreted by Engelbreth-Holm-Swarm (EHS) mouse sarcoma cells) or another extracellular matrix protein, as mentioned herein, is maintained at 2% (v/v) throughout days 1-8.
as §1, §2
Aggregates were fixed with 4% paraformaldehyde. […]
The apparent thickness of epithelia was determined by analyzing cryosections stained with Ncad (Control) or Ecad antibodies (all other conditions) on days 3-6. […] For each aggregate, 3 serial sections were analyzed. Five points along the epithelium were randomly chosen and the thickness was measured using Nikon Elements image analysis tools.

ESC aggregates [3] = assay: Non-neural ectoderm induction in SFEBq 3D culture (qPCR, immunostaining)
Protocol: In an exemplary embodiment using mES cells, during days 0-3, serum-free floating culture of embryoid body-like aggregate with quick reaggregation (SFEBq) to generate EBs is initiated by dissociation of adherent mES cells into a cell suspension by trypsinization (e.g., with 0.25% Trypsin-EDTA, and resuspended in “Differentiation Medium”. Differentiation Medium is composed of Glasgow Minimal Essential Medium (G-MEM) supplemented with 1.5% knockout serum replacement (KSR; Invitrogen), 0.1 mM non-essential amino acids, 1 mM sodium pyruvate, 1 mM Penicillin/Streptomycin and 1 mM 2-mercaptoethanol. Cells are then plated in 100 μl/well in a range of about 1,000-15,000 cells, but preferably about 3000 cells, a in 96-well low cell adhesion U-bottom plates. On day 1, half of the medium in each well is exchanged for fresh Differentiation Medium containing an extracellular matrix protein, e.g., MATRIGEL™ (a gelatinous protein mixture secreted by Engelbreth-Holm-Swarm (EHS) mouse sarcoma cells) (2% v/v final concentration), laminin (50-400 μg/ml), or laminin plus entactin (50-400 μg/ml each).
On day 3 after initiating formation of EBs, a BMP, e.g., BMP2, BMP4, or BMP7 and a TGFβ inhibitor are added to the culture medium. The concentration of BMP, e.g., BMP4, to be used in the method can range from at least about 1 ng/ml to about 50 ng/ml, e.g., about 2 ng/ml, 4 ng/ml, 5 ng/ml, 7 ng/ml, 12 ng/ml, 15 ng/ml, 20 ng/ml, 25 ng/ml, 32 ng/ml, 40 ng/ml, or another concentration of a BMP from at least about 1 ng/ml to about 50 ng/ml. In some embodiments, the BMP to be used is BMP4 at a concentration of about 10 ng/ml. BMP 4. In some embodiments, the TGFβ inhibitor to be used is SB 431542 (CAS No. 301836-41-9, at a final concentration of about 1 μM). Alternatively, any of the following TGFβ inhibitors may be used: A 83-01 (CAS No. 909910-43-6), GW 788388 (CAS No. 452342-67-5), LY 364947 (CAS No. 396129-53-6), RepSox (CAS No. 446859-33-2), SB 505124 (CAS No. 694433-59-5), SB 525334 (CAS No. 356559-20-1), or SD 208 (CAS No. […]) at a concentration of about 0.1 μM to about 5 μM.
as §1
RNA was isolated using the RNeasy Minikit (Qiagen) and treated with TURBO DNase (Ambion). Single-stranded cDNA was synthesized using Omniscript reverse transcriptase (Qiagen) and Oligo-dT primers. […] The mRNA level for each gene was calculated relative to L27 mRNA expression. […]

[4] = qPCR of day 5 samples, 10 ng/mL BMP vs vehicle control

Molecule: Cc1c[nH]c(-c2cnc(NCCNc3ccc(C#N)cn3)nc2-c2ccc(Cl)cc2Cl)n1 [CHIR99021]
- abundance of Pax2/Ecad+ vesicles with a luminal diameter greater than 50 μm (large vesicles) (ESC aggregates [1]; CHIR99021 3 μM days 8-10, read on day 12): higher abundance

Molecule: FGF: recombinant human FGF2 (25 ng/mL; Peprotech)
- Pax8 expression versus FGF dosage (ESC aggregates [1]; qPCR, n=4, 25, 50 and 100 ng/mL not significantly different): dependent on FGF dosage

Molecule: Oc1nc(-c2ccc(C(F)(F)F)cc2)nc2c1CSCC2 [XAV939]
- number of prosensory vesicles (ESC aggregates [1]; XAV939 (1 μM) from day 8-10, vesicles counted on day 12): significantly decreased; also recorded: decreases
- prevalence of Pax2+ vesicles (ESC aggregates [1]; XAV939 from day 8-10): reduced
- generation of otic vesicles following BMP/SB-FGF/LDN treatment (ESC aggregates [1]; XAV939 on days 8-10): blocked

Molecule: c1ccc2c(-c3cnn4cc(-c5ccc(N6CCNCC6)cc5)cnc34)ccnc2c1 [LDN, LDN-193189]
- Sox1 expression after LDN treatment (ESC aggregates [2]; BMP/SB aggregates): does not induce
- Dlx3 expression in BMP/SB aggregates after BMP inhibition (ESC aggregates [2]; LDN treatment on day 4.5): maintained expression of Dlx3
- Dlx3 expression after LDN treatment (ESC aggregates [2]; treatment on or before day 4): suppresses

Molecule: Cc1c[nH]c(/C=C2\C(=O)Nc3ccccc32)c1CCC(=O)O [SU5402]
- epithelial thickening (ESC aggregates [2]; SU5402 (10 μM) following BMP/SB-LDN treatment): abolishes epithelial thickening

Molecule: NC(=O)c1ccc(-c2nc(-c3ccc4c(c3)OCO4)c(-c3ccccn3)[nH]2)cc1 [SB, SB-431542]
- level of brachyury expression induced by BMP (ESC aggregates [3]; SB added to BMP, n=3): decreases

B1: BMP4: recombinant human BMP4 (bone morphogenetic protein), 10 ng/mL; Stemgent (protein, UniProt P12644 293-408, looked up)
Bone morphogenetic protein 4: SPKHHSQRARKKNKNCRRHSLYVDFSDVGWNDWIVAPPGYQAFYCHGDCPFPLADHLNSTNHAIVQTLVNSVNSSIPKACCVPTELSAISMLYLDEYDKVVLKNYQEMVVEGCGCR
- brachyury+ cells in aggregates (ESC aggregates [3]; day 5, BMP-treated aggregates): 60.8±3.9%
- neuroectoderm marker Sox1 expression (ESC aggregates [3]; [4]): downregulated
- non-neural ectoderm marker Dlx3 expression (ESC aggregates [3]; [4]): upregulated
